Like-named read-outs stand apart in the source and are kept apart here.
How the values were obtained:
Format in all cases: cell-based
[1] = tested on: non-myeloma cell lines (NALM6, 143B, MDA-MB-435, 1420)
Procedure: (§1) Cytotoxicity assay: Cells were incubated for 24 hr at 37° C. in 5% CO2 at which time drug treatments began and continued for 24 hr. At this time attached cells were trypsinized and combined with their respective culture media while suspension cells were directly transferred to a tube followed by centrifugation at 400 g for 5 min. The pellets were resuspended in 1 ml of Hanks solution and analyzed by Vi-Cell (Beckman Coulter, Fullerton, Calif.) cell viability analyzer.

[2] = tested on: multiple myeloma cell lines (MM.1S, 8226, KMS-11, U266)
Procedure: as §1

[3] = tested on: B-cell leukemia lines (NALM6, REH)
Procedure: (§2) Cytotoxicity assay: Cells were incubated for 24 h at 37° C. in 5% CO2 at which time drug treatments began and continued for 24 h. At this time cells were transferred to a tube followed by centrifugation at 400 g for 5 min. The pellets were resuspended in 1 ml of Hanks solution and analyzed by Vi-Cell (Beckman Coulter, Fullerton, Calif., USA) cell viability analyzer.

[4] = tested on: MM cell lines (MM.1S, 8226, KMS-11)
Procedure: as §2

[5] = tested on: CHOP/GADD153 and cleaved caspase 3 in 4 MM cell lines; test: Western blot of CHOP/GADD153 and cleaved caspase 3 (UPR-mediated apoptosis); conditions: all 4 MM cell lines
Procedure: Western Blot analysis: Cells are plated at 10^4 cell/cm^−2 for attached cells and 3×10^5/ml for suspension cells and grown under drug treatment for the indicated times. At the end of the treatment period, cells are collected and lysed with 1% SDS in 80 mM Tris-HCL (ph 7.4) buffer supplemented with a proteinase inhibitor cocktail. DNA is fragmented by sonication and protein concentrations are measured by microBCA protein assay kit (Pierce, Rockford, Ill.). Samples are mixed with 3× Laemmli sample buffer (Cell Signaling, Danvers, Mass.) and 40 μg of protein was run on a 12% SDS-polyacrylamide gel. Gels are transferred to nitrocellulose membranes (Amersham, Piscataway, N.J.) and probed with monoclonal rabbit anti-GRP94, anti GRP-78, anti-PDI, anti-CHOP/GADD153, anti-cleaved caspase 3 (Cell Signaling, Danvers, Mass.) and monoclonal mouse anti-β-actin (Sigma, St. Louis, Mo.). Following probing, membranes are washed and incubated with HRP-conjugated secondary antibody (Invitrogen, Carlsbad, Calif.). Following addition of 1:3 diluted femto-chemiluminescent substrate (Pierce, Rockford, Ill.) membranes were exposed to blue autoradiographic film (ISC bioexpress, Kaysville, Utah). Where indicated, membranes were stripped with Stripping Buffer (Pierce, Rockford, Ill.) and reprobed with anti-β-actin (Sigma-Aldrich, St. Louis, Mo.) primary antibody. When needed, the blots were quantified using Bio-Rad gel reader which employs Quality I software (Bio-Rad, Hercules, Calif.).

[6] = tested on: CHOP/GADD153 and cleaved caspase 3 in MM.1S, 8226, KMS-11; test: Western blot of CHOP/GADD153 and cleaved caspase 3 in 3 MM cell lines; conditions: concentrations of FIG. 13
Procedure: . Induction of UPR-mediated apoptosis following treatment of 3 MM cell lines with four different mitochondrial inhibitors for various time points was assayed by western blot analysis of CHOP and cleaved caspase 3.
Western blot analysis: Western blots were performed. Membranes were probed with monoclonal rabbit anti-GRP94, anti GRP-78, anti-PDI, anti-CHOP/GADD153, anti-cleaved caspase 3 (Cell Signaling, Danvers, Mass., USA) and monoclonal mouse anti-β-actin (Sigma, St. Louis, Mo., USA).

[7] = tested on: non-myeloma cell lines (NALM6, MDA-MB-435, 143B, 1420); test: Measurement of cytoplasmic calcium (indo-1 fluorescence ratio 400/500 nm); conditions: for increase in cytoplasmic Ca2+ after mitochondrial inhibitor: non-myeloma cell lines (oligomycin: all cell lines)
Procedure: (§3) Measurement of cytoplasmic calcium: Cytoplasmic Ca^2+ concentration was estimated by using the cell permeant fluorochrome indo-1-AM (Invitrogen, Carlsbad, Calif.). When excited at 355 nm, the maximum emission of indo-1 shifts from 500 nm to 400 nm following its binding to free Ca^2+. Thus, the ratio of reading at 400 nm and 500 nm correlates with concentration of cytoplasmic Ca^2+. Experiments were performed in cells loaded with indo-1 by incubating them with 2.5 μM of this fluorochrome at 37° C. for 45 min. Cells were then centrifuged at 400 g for 5 min and resuspended in their growth medium followed by distribution of 100 μl of aliquots into 96 well optical bottom plates (Nalge Nunc, Int., Rochester, N.Y.) and fluorescence was measured by Spectra Max Gemini Plus (Molecular Devices, Sunnyvale, Calif.). The average of triplicates from untreated samples was used as control reading and increase in cytoplasmic Ca^2+ was calculated as percent increase from control samples.

[8] = tested on: MM cell lines (MM1.S, 8226, KMS-11, U266); test: as above; conditions: for cytoplasmic Ca2+ after mitochondrial inhibitor / effect on mitochondrial Ca2+ uptake: MM cell lines; for effect on mitochondrial Ca2+ uptake: estimated from cytoplasmic Ca2+
Procedure: as §3

MM.1S cells = test: Reversal of CCCP induced toxicity (trypan blue exclusion); conditions: 10 μM BAPTA-AM or 50 μM of Z-VAD
Procedure: A) Reversal of CCCP induced toxicity by either 10 μM BAPTA-AM or 50 μM of Z-VAD was investigated using trypan blue exclusion assays. The bars represent the average of triplicate samples +SD. B) ATP levels were assayed following 6 h of treatment with indicated concentrations of CCCP. The bars represent the average of triplicate samples +SD. C) Induction of UPR, activation of AMPK pathway and cleavage of caspase 3 was analyzed by western blots following 24 h treatment with indicated concentrations of CCCP in MM.1S and REH cell lines. β-Actin was used as a loading control. D) The quantification of phosphorylated AMPK and total AMPK bands in the previous panel was done using a Bio-Rad gel reader which employs Quality I software. The bars represent the fold increase in the ratio of p-AMPK/AMPK in treated versus untreated samples from three independent experiments +SD.
as §2

[9] = tested on: MM (MM.1S, 8226, KMS-11) and B-cell leukemia (NALM6, REH) cell lines; test: ER Ca2+ leak: cytoplasmic Ca2+ (indo-1) after thapsigargine, Example 2
Procedure: Measurement of cytoplasmic and mitochondrial calcium: Cytoplasmic Ca^2+ concentration was estimated by using the cell permeant ratiometric fluorochrome indo-1-AM (Invitrogen, Carlsbad, Calif., USA) while mitochondrial Ca^2+ was measured by X-Rhod-1-AM (Invitrogen, Carlsbad, Calif., USA). In the latter assay, to normalize mitochondrial Ca^2+ signal to mitochondria number, Mitotracker Green (Invitrogen, Carlsbad, Calif., USA) fluorescence was simultaneously analyzed. Experiments were performed in cells loaded with either 2.5 μM of indo-1 or 5 μM X-rhod-1 and 250 nM of Mitotracker at 37° C. for 45 min. Cells were, then, centrifuged at 400 g for 5 min and resuspended in their growth medium followed by distribution of 100 μl of aliquots into 96 well optical bottom plates (Nalge Nunc, Int., Rochester, N.Y., USA) and fluorescence was measured by Spectra Max Gemini Plus (Molecular Devices, Sunnyvale, Calif., USA). The average of triplicates from untreated samples was used as control reading and increase in cytoplasmic or mitochondrial Ca^2+ was calculated as percent increase from control samples.
Due to the high levels of glycoprotein production in MM cells, it was investigated whether there is a greater ER Ca^2+ leak in these cells as compared to Bcells. As shown in previous reports, ER Ca^2+ leak can be assayed indirectly by measuring cytoplasmic Ca^2+ concentration following inhibition of SERCA by thapsigargine.

[10] = 24 h, at doses toxic to MM cell lines
[11] = 24 h, at concentrations toxic to MM cell lines

Compound	cytotoxicity [1, 10]	cytotoxicity (cell death) [2]	cytotoxicity [3, 11]	cytotoxicity (cell death) [4]	treatment time at which CHOP/GADD153 expression is noted [5] [h]	CHOP/GADD153 expression relative to CCCP [6]	increase in cytoplasmic Ca2+ after mitochondrial inhibitor [7]	other results
CC(C)OC(=O)C(C)(C)Oc1ccc(C(=O)c2ccc(Cl)cc2)cc1 [fenofibrate]	not toxic to non-myeloma cells	significant toxicity	less toxic to B-cell leukemia lines	significant toxicity				
C=C(C)[C@H]1Cc2c(ccc3c2O[C@@H]2COc4cc(OC)c(OC)cc4[C@@H]2C3=O)O1 [rotenone]		significant cell death		significant cell death	6	less CHOP/GADD153 expression than CCCP	not seen in non-myeloma cell lines except for NALM6	cytotoxicity [1]: little or no toxicity; cytotoxic potency compared to the other mitochondrial inhibitors [2]: equipotency in inducing cytotoxicity in MM cells; cytotoxicity [3]: little or no toxicity; cytoplasmic Ca2+ after mitochondrial inhibitor [8]: immediate increase in cytoplasmic Ca^2+; effect on mitochondrial Ca2+ uptake [8]: equally inhibit mitochondrial Ca^2+ uptake
antimycin A		significant cell death		significant cell death	6	comparable to that induced by CCCP	not seen in non-myeloma cell lines except for NALM6	cytotoxicity [1]: little or no toxicity; cytotoxic potency compared to the other mitochondrial inhibitors [2]: less toxic than these two mitochondrial inhibitors; cytotoxicity [3]: little or no toxicity; cytoplasmic Ca2+ after mitochondrial inhibitor [8]: immediate increase in cytoplasmic Ca^2+
Z-VAD								reversal of CCCP induced toxicity (MM.1S cells): can reverse the majority of CCCP toxicity
C/C=C(/C)C(=O)O[C@H]1C(C)=C2[C@H]([C@@H]1OC(=O)CCCCCCC)[C@@](C)(OC(C)=O)C[C@H](OC(=O)CCC)[C@@]1(O)[C@H]2OC(=O)[C@@]1(C)O [thapsigargine]	resistant	sensitive	resistant	sensitive				order of ER Ca2+ leak after thapsigargine ([9]; MM cell lines): MM1.S>8226>KMS-11; cytoplasmic Ca2+ concentration at new equilibrium ([9]; after 30 min, MM versus B-cell leukemias): all 3 MM cell lines had significantly greater cytoplasmic Ca^2+ concentration than the 2 B-cell leukemias; cytoplasmic Ca2+ concentration ([9]; within 5 min after addition, all five cell lines): significantly increases; order of sensitivity among MM cell lines ([2]; 24 h treatment): MM.1S>8226>KMS-11>U266; cytoplasmic Ca2+ after thapsigargine ([7]; 143B and 1420, 30 min. after addition): significantly increases; cytoplasmic Ca2+ after thapsigargine ([7]; NALM6 and MDA-MB-435): little or no change; cytoplasmic Ca2+ increase after thapsigargine in 8226 ([8]; 8226 compared to KMS-11 or U266): increase less than that observed in KMS-11 or U266 cell lines; lag before increase in cytoplasmic Ca2+ ([8]; U266 (printed U226) cell line): ~20 min; cytoplasmic Ca2+ concentration after thapsigargine ([8]; immediately after addition, MM1.S, 8226 and KMS-11): significantly increases
Cc1c(C)c2c(c(C)c1O)CCC(C)(COc1ccc(CC3SC(=O)NC3=O)cc1)O2 (stereo not drawn) [troglitazone]	not toxic to non-myeloma cells	significant toxicity	less toxic to B-cell leukemia lines	significant toxicity				
CC(=O)OCOC(=O)CN(CC(=O)OCOC(C)=O)c1ccccc1OCCOc1ccccc1N(CC(=O)OCOC(C)=O)CC(=O)OCOC(C)=O [BAPTA-AM]								reversal of CCCP induced toxicity (MM.1S cells): does not reverse the toxicity of CCCP
CC[C@H]1/C=C/C=C/C[C@@H](C)[C@H](O)[C@@](C)(O)C(=O)[C@@H](C)[C@H](O)[C@@H](C)C(=O)[C@@H](C)[C@H](O)[C@@H](C)/C=C/C(=O)O[C@@H]2[C@H](C)[C@H](CC1)O[C@]1(CC[C@H](C)[C@H](C[C@@H](C)O)O1)[C@H]2C [oligomycin]	little or no toxicity		little or no toxicity		6	comparable to that induced by CCCP	minimal or no effect	cytotoxic potency compared to the other mitochondrial inhibitors ([2]; 24 h, MM cells): less toxic potency in MM cells when compared to other inhibitors; cytotoxicity (cell death) ([2]; 24 h treatment, all 4 MM cell lines): significant cell death; cytotoxicity (cell death) ([4]; 24 h, all 3 MM cell lines): significant cell death; effect on mitochondrial Ca2+ uptake [8]: little or no effect
